System: allo-reactive T cells
Test: Mixed lymphocyte reaction, B6 SPCs cocultured with irradiated BALB/c SPCs with WT or E223A mutant MMP13
Type: cell-based, mouse
Settings: 5 days coculture
Description: Flow cytometric analysis: Single-cell suspensions were filtered through nylon mesh and stained with the following antibodies: CD3, CD4, CD8, CD25, IFN-g, PD-L1, CD11c, B220, CD11b, F4/80, and then analyzed by FCM using Fortessa.
SPCs from B6 mice were seeded at 5×10e5/well, cocultured with irradiated BALB/c SPCs (5×10e5/well) in the presence of recombinant human MMP13 (WT-MMP13) or mutant MMP13 (E223A, muMMP13) proteins for 5 days.

mu-MMP13: catalytically-inactive E223A point mutant of MMP-13
CFSElo CD25+ of CD4+ T cells (decreased from 21.1% without MMP13): 3.2% | CFSElo CD25+ of CD8+ T cells (down from 41.5% without MMP13): 2.5%
